Reference: article PMC10350920, “Development of a 2,4-Diaminothiazole Series for the Treatment of Human African Trypanosomiasis Highlights the Importance of Static–Cidal Screening of Analogues” (Journal of Medicinal Chemistry, 2023)
Like-named read-outs stand apart in the source and are kept apart here.

How the values were obtained:
[1] = Mouse liver microsomal intrinsic clearance; assay type: in vitro ADME
Method: Test compounds (0.5 μM) were incubated with female CD1 mouse liver microsomes (Xenotech LLC; 0.5 mg mL^–1 50 mM potassium phosphate buffer, pH 7.4), and the reaction started with the addition of excess NADPH (8 mg mL^–1 50 mM potassium phosphate buffer, pH 7.4). Immediately, at 0 min, and then at 3, 6, 9, 15, and 30 min, an aliquot (50 μL) of the incubation mixture was removed and mixed with acetonitrile (100 μL) to stop the reaction. The internal standard was added to all samples, the samples were centrifuged to sediment the precipitated protein, and the plates were then sealed prior to UPLC–MS/MS analysis using a Quattro Premier XE (Waters Corporation, USA). XLfit (IDBS, UK) was used to calculate the exponential decay and consequently the rate constant (k) from the ratio of the peak area of the test compound to the internal standard at each time point. The rate of intrinsic clearance (CLint) of each test compound was then calculated using the following calculation [drawing 3] where V (mL mg^–1 protein) is the incubation volume mg^–1 protein added and the microsomal protein yield is taken as 52.5 mg protein g^–1 liver. Verapamil (0.5 μM) was used as a positive control to confirm acceptable assay performance.

[2] = Mammalian cell counter screen (MRC-5); assay type: cell-based, human; settings: human, MRC-5 fibroblasts; mean values; number of replicates in parentheses
Method: (§1) Drug sensitivity assays with BSF T. b. brucei “single marker” S427 and human MRC-5 fibroblasts were conducted as previously described.[43]

human MRC-5 fibroblasts = assay: Mammalian cell counter screen (MRC-5); assay type: cell-based; settings: for SI: selectivity index (EC50 MRC5/EC50 T. brucei)
Method: as §1

[3] = Kinetic aqueous solubility (laser nephelometry); assay type: physicochemical; settings: Milli-Q water with 2.5% DMSO
Method: The kinetic aqueous solubility of the test compounds was measured using laser nephelometry. Compounds were subject to serial dilution from 10 to 0.5 mM in DMSO. An aliquot was then mixed with Milli-Q water to obtain an aqueous dilution plate with a final concentration range of 13–250 μM, with a final DMSO concentration of 2.5%. Triplicate aliquots were transferred to a flat-bottomed polystyrene plate which was immediately read on the NEPHELOstar (BMG Lab Technologies). The amount of laser scatter caused by insoluble particulates (relative nephelometry units, RNUs) was plotted against compound concentration using a segmental regression fit, with the point of inflection being quoted as the compound’s aqueous solubility (μM).

[4] = system: BSF T. b. brucei “single marker” S427; assay: Drug sensitivity assay with bloodstream-form T. brucei; assay type: cell-based; settings: Trypanosoma brucei; mean values; number of replicates in parentheses
Method: as §1

T. brucei RES I = assay: Drug sensitivity, compound 38-resistant clone RES I; assay type: cell-based, T. b. brucei; settings: for EC50: Trypanosoma brucei, read-out: EC50, RES I; for fold resistance, RES I: relative to the parental wild-type, in brackets
Method: (§2) Drug sensitivity assays were carried out with BSF T. b. brucei “single marker” S427 or BSF T. b. brucei, Lister 427, MiTat 1.2, clone 221a 2T1 cells,[45] cells grown at 37 °C with 5% CO2 in an HMI-9T medium[46] as previously described.[47] 2T1 cells were initially maintained with 1 μg mL^–1 puromycin and 1 μg mL^–1 phleomycin prior to transfection or 2.5 μg mL^–1 hygromycin and 1 μg mL^–1 phleomycin after transfection. Induction of overexpression was achieved by the addition of 1 μg mL^–1 tetracycline to the culture medium.
(§3) Compound-resistant cell lines were generated by subculturing a clone of T. brucei in the continuous presence of 38. Starting at sublethal concentrations, drug concentrations in two independent cultures were increased in a stepwise manner, usually 2-fold. When parasites were able to survive and grow in concentrations of drugs equivalent to more than 10 times the established EC50 value, the resulting cell lines were cloned by limiting dilution in the presence of the compound. Two clones (RES I-II) were selected for further biological study. A standard alkaline lysis protocol was used to isolate genomic DNA from compound-resistant bloodstream T. brucei parasites (∼1 × 10^8). Whole genome sequencing was performed using a DNB-seq next-generation sequencing platform (BGI, Hong Kong). Sequencing reads (150 bp) were aligned to the T. brucei TREU927 genome (v39; tritrypDB) using Bowtie2[48] and Samtools[49] software. […] Samtools and BCFtools[52] (mpileup) were used to call SNP and indels compared with the wild-type starter clone, where the overall quality score (QUAL) was >100. Artemis[50] was used to analyze chromosome and gene copy number variation, as well as visualization of SNPs.

T. brucei wild-type = assay: Drug sensitivity, wild-type parental line; assay type: cell-based, T. b. brucei; settings: Trypanosoma brucei; weighted mean of ≥3 independent experiments
Method: as §2, §3

T. brucei RES II = assay: Drug sensitivity, compound 38-resistant clone RES II; assay type: cell-based, T. b. brucei; settings: for EC50: Trypanosoma brucei, read-out: EC50, RES II; for fold resistance, RES II: relative to the parental wild-type, in brackets
Method: as §2, §3

[5] = system: Tb927.8.6290 overexpressing cell lines (WT); assay: Drug sensitivity, line overexpressing Tb927.8.6290 WT; assay type: cell-based, T. b. brucei; settings: for EC50: Trypanosoma brucei
Method: as §2
(§4) The following primers were used to PCR amplify Tb927.8.6290 from genomic DNA isolated from wild-type and 38-resistant trypanosomes 5′-[…]-3′ (PacI site in bold) and 5′-[…]-3′ (BamHI site in bold). The PCR products (1272 bp) were then cloned into the pRPa plasmid.[53] The accuracy of the plasmid constructs was confirmed by in-house Sanger sequencing and then linearized with AscI prior to transfection. The linearized plasmids were introduced into 2T1 T. b. brucei cells following removal of puromycin from the media and selected with 2.5 μg mL^–1 hygromycin and 1 μg mL^–1 phleomycin. Two independent clones were selected for further studies.

[6] = system: Tb927.8.6290 overexpressing cell lines (V241F/A258V); assay: Drug sensitivity, line overexpressing Tb927.8.6290 V241F/A258V; assay type: cell-based, T. b. brucei; settings: for EC50: Trypanosoma brucei
Method: as §2, §4

[7] = system: Tb927.8.6290 overexpressing cell lines (A258P); assay: Drug sensitivity, line overexpressing Tb927.8.6290 A258P; assay type: cell-based, T. b. brucei; settings: for EC50: Trypanosoma brucei
Method: as §2, §4

[8] = Human microsomal intrinsic clearance; assay type: in vitro ADME; settings: second value of mouse/human cell
[9] = Equilibrium dialysis, free fraction in plasma; assay type: in vitro ADME, mouse; settings: matrix not given; for fraction unbound at 5 h, 10 μg mL^–1: CD1, mouse, plasma, pH 7.4, read-out: Fu (free fraction)
Method: In brief, a 96-well equilibrium dialysis apparatus was used to determine the free fraction in plasma and the brain (HT Dialysis LLC, Gales Ferry, CT). Isotonic buffer was prepared using 8.69 g of Na2HPO4, 1.9 g of KH2PO4, and 4.11 g of NaCl dissolved in 1 L of Milli-Q water, and the pH was adjusted to 7.4. Artificial CSF was prepared using 3.652 g of NaCl, 93.2 mg of KCl, 119.96 mg of MgCl2, 92.61 mg of CaCl2, and 268 mg of Na2HPO4 heptahydrate dissolved in 0.5 L of water, and the pH was adjusted to 7.4. Membranes [12–14 (plasma) or 6–9 (brain) kDA cutoff] were conditioned in deionized water for 60 min, followed by conditioning in 80:20 deionized water/ethanol for 20 min, and then rinsed in isotonic buffer (plasma) or […] (brain) before use. Female CD1 mouse plasma was defrosted and centrifuged for 10 min at 3000 rpm (Allegra X12-R, Beckman Coulter, USA). The control mouse brain was homogenized in two volumes of artificial CSF in a Covaris S2 acoustic homogenizer. Plasma or brain homogenate was spiked with the test compound (10 μg mL^–1), and 150 μL aliquots (n = 3 replicate determinations) were loaded into the 96-well equilibrium dialysis plate. Dialysis versus 150 μL of isotonic buffer (plasma) or artificial CSF (brain) was carried out for 5 h in a temperature-controlled incubator at 37 °C (Barworld Scientific Ltd, UK) using an orbital microplate shaker at 125 rpm (Barworld Scientific Ltd, UK). At the end of the incubation period, aliquots of plasma/homogenized brain or buffer were transferred to a clean 96-well plate, and the composition in each well was balanced with control fluid, such that the volume of buffer to the matrix was the same. Sample extraction was performed by the addition of 400 μL of acetonitrile containing an appropriate internal standard. Samples were allowed to mix for 1 min and then centrifuged at 3000 rpm in 96-well blocks for 10 min (Allegra X12-R, Beckman Coulter, USA). All samples were analyzed by means of UPLC/MS/MS on a Quattro Premier XE or Micro TQs mass spectrometer (Waters Corporation, USA). The unbound fraction was determined as the ratio of the peak area in the buffer to that in the matrix.

TbGSK3 = system: TbGSK3; parameters: method as in PMID 23776181; settings: recombinant enzyme, previously established; cited from earlier work
[10] = Mouse brain penetration (brain:blood ratio); assay type: in vivo, female NMRI mice; settings: female, NMRI, mouse, brain and blood, 10 mg kg^–1; mice, bolus of test compound, total compound; read-out: brain/blood (B/B) ratio
Method: Medicines for HAT are required to treat both acute and chronic infections, where parasites pass through the blood/brain barrier and enter the CNS. With this in mind, mice were dosed with an […] bolus of our test compounds, and compound concentrations in blood and brain were determined by UPLC–MS/MS. […] The brain fraction unbound was 0.0063 for 16 and 0.0313 for 38. Brain penetration of the series as a whole tracked with the generally accepted rules of CNS penetration, with a lower topological PSA (TPSA) and molecular weight compounds having an increased B/B ratio (Table S2 and Figure S1). However, the link between log P and the B/B ratio was slightly less convincing. […] This difference could be explained by 18 being a substrate for the P-glycoprotein efflux pump.
Each compound was dosed as an IV bolus at 10 mg kg^–1 dissolved in 15% solutol/Milli-Q (dose volume 10 mL kg^–1) to female NMRI mice (n = 3). At 30 min following the IV bolus of the test compound, mice (n = 3/time point) were placed under terminal anesthesia with isoflurane. A blood sample was taken by cardiac puncture and added to two volumes of distilled water, and the brain was removed. […] For each mouse at each time point, the concentration in the brain (ng g^–1) was divided by the concentration in blood (ng mL^–1) to give a brain: blood ratio.

Row | Structure (SMILES) | CLint (mouse) [1] [mL·min/g] | EC50 [2] [nM] | SI (human MRC-5 fibroblasts) | EC50 [4] [nM] | CLint (human) [8] [mL·min/g] | also measured
1 | CC(OCC(=O)c1sc(Nc2ccn(C)n2)nc1N)C(F)(F)F (centres unmarked) [Compound 55, 1-(4-Amino-2-((1-methyl-1H-pyrazol-3-yl)amino)thiazol-5-yl)-2-((1,1,1-trifluoropropan-2-yl)oxy)ethan-1-one] | 10.8 | 9400 | 50 | 190 | – | solubility [3]: > 100 µg/mL
2 | O=C1Nc2ccc3ncsc3c2/C1=C/Nc1ccc(S(=O)(=O)Nc2ccccn2)cc1 [GW8510] | – | – | – | – | – | EC50 (T. brucei RES I): 65 ± 4 nM; fold resistance, RES I (T. brucei RES I): 1; EC50 (T. brucei wild-type): 120 ± 8 nM; EC50 (T. brucei RES II): 110 ± 4 nM; fold resistance, RES II (T. brucei RES II): 1
3 | Nc1nc(Nc2ccccc2)sc1C(=O)c1c(F)cccc1F [Compound 69, reference compound] | – | – | – | – | – | EC50 ([5]; read-out: EC50, WT +TET): 410 ± 19 nM; EC50 ([5]; read-out: EC50, WT –TET): 170 ± 4 nM; fold shift, WT ([5]; −TET vs +TET EC50, in brackets): 2; EC50 ([6]; read-out: EC50, V241F/A258V +TET): 1200 ± 51 nM; EC50 ([6]; read-out: EC50, V241F/A258V –TET): 180 ± 11 nM; fold shift, V241F/A258V ([6]; −TET vs +TET EC50, in brackets): 6; EC50 (T. brucei RES I): 360 ± 16 nM; fold resistance, RES I (T. brucei RES I): 2; EC50 (T. brucei wild-type): 150 ± 3 nM; EC50 (T. brucei RES II): 390 ± 28 nM; fold resistance, RES II (T. brucei RES II): 3; EC50 ([7]; read-out: EC50, A258P +TET): 1400 ± 35 nM; EC50 ([7]; read-out: EC50, A258P –TET): 200 ± 9 nM; fold shift, A258P ([7]; −TET vs +TET EC50, in brackets): 7
4 | Nc1nc(Nc2ccccc2)sc1C(=O)c1ccccc1 [Compound 34, (4-Amino-2-(phenylamino)thiazol-5-yl)(phenyl)methanone] | 12 | 11000 | 69 | 160 | < 0.5 | selectivity over MRC-5 cell line (human MRC-5 fibroblasts): ~100 fold
5 | Nc1nc(NC2CCCC(O)C2)sc1C(=O)c1c(F)cccc1F (centres unmarked) [Compound 16B] | 1.8 | – | – | 948 | – | fraction unbound at 5 h, 10 μg mL^–1 [9]: 0.22
6 | CC(C)(C)C(=O)c1sc(NC2CCCCC2)nc1N [Compound 1, 1-(4-Amino-2-(cyclohexylamino)thiazol-5-yl)-2,2-dimethylpropan-1-one] | 2.5 | > 50000 | >100 | 470 | – | selectivity over MRC-5 cell line (human MRC-5 fibroblasts): ~200 fold; IC50 (TbGSK3): 12000 nM
7 | CC(OCC(=O)c1sc(Nc2ccc(C(F)(F)F)nc2)nc1N)C(F)(F)F (centres unmarked) [Compound 56, 1-(4-Amino-2-((6-(trifluoromethyl)pyridine-3-yl)amino)thiazol-5-yl)-2-((1,1,1-trifluoropropan-2-yl)oxy)ethanone] | – | > 50000 | 96 | 520 | – | solubility [3]: > 100 µg/mL
8 | CC(C)CC(=O)c1sc(Nc2ccc(F)c(F)c2)nc1N [Compound 37, 1-(4-Amino-2-((3,4-difluorophenyl)amino)thiazol-5-yl)-3-methylbutan-1-one] | 5.9 | > 50000 | >250 | 200 | 3.2 | Kp at 30 min [10]: 4.7
9 | Nc1nc(N[C@H]2CC[C@H](O)CC2)sc1C(=O)c1c(F)cccc1F [Compound 16A] | – | – | – | 360 | – | fraction unbound at 5 h, 10 μg mL^–1 [9]: 0.39
10 | Nc1nc(NC2CCCCC2)sc1C(=O)c1ccc(OC(F)F)cc1 [Compound 26, (4-Amino-2-(cyclohexylamino)thiazol-5-yl)(4-(difluoromethoxy)phenyl)methanone] | 2.9 | 22000 | – | 60 | 0.8 | Fu (free fraction) [9]: low
